Results on 29 molecules are retold here after ChEMBL document CHEMBL1147768, “Novel histamine H3 receptor antagonists based on the 4-[(1H-imidazol-4-yl)methyl]piperidine scaffold” (Bioorg Med Chem Lett, 2006).

Assay [1] concerns the target T1, Histamine H3 receptor (Cavia porcellus, UniProt Q9JI35). The assay is described as follows: Antagonist potency against histamine H3 receptor in an electrically stimulated guinea pig ileum. Format: functional, tissue-based. The conditions noted are these: read-out: pA2 (converted).
Assay [2] has as its target T1, Histamine H3 receptor. The assay is described as follows: Displacement of [3H]N-alpha-methylhistamine from histamine H3 receptor in guinea pig brain.
The next assay concerns the target Cytochrome P450 2D6 (Homo sapiens, UniProt P10635). As to the kind of experiment: Inhibition of CYP2D6 in human liver microsomes. Format: ADME, Microsome.
In assay [3] the target is Histamine H3 receptor (Homo sapiens, UniProt Q9Y5N1). The assay is described as follows: Displacement of [3H]N-alpha-methylhistamine from histamine H3 receptor in human brain. A general note: In a radioligand displacement assay an active substance lowers the binding of a labelled ligand.
Chain of Histamine H3 receptor (Homo sapiens, UniProt Q9Y5N1) (Q9Y5N1 whole entry): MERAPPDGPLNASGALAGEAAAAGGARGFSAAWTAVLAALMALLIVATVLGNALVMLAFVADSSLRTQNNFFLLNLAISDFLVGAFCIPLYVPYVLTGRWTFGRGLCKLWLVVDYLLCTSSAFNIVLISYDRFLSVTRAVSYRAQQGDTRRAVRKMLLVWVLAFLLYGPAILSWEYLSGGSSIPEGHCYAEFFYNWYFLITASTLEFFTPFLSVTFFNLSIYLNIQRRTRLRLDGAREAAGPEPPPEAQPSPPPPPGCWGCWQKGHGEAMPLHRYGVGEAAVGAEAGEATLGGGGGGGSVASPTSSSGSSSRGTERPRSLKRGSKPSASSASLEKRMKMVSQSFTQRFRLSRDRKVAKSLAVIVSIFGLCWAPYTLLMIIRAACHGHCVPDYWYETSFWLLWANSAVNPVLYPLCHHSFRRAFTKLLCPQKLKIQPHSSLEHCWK
Another assay concerns the target Histamine H1 receptor (Cavia porcellus, UniProt P31389). The assay is described as follows: Displacement of [3H]N-alpha-methylhistamine from histamine H1 receptor in guinea pig brain.

The structures appear in SMILES notation.

T1 sequence (Q9JI35 whole entry): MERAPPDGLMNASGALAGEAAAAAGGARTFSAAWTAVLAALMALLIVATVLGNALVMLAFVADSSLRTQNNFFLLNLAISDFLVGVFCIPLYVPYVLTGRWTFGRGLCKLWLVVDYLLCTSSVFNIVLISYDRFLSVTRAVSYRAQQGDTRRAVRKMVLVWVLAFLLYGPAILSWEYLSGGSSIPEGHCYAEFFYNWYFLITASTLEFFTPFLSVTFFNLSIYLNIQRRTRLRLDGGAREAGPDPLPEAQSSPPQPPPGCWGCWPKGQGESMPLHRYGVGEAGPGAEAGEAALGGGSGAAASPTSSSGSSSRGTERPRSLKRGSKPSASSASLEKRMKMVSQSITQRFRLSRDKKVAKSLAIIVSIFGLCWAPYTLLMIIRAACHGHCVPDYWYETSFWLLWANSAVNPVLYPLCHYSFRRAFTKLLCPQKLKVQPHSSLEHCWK
Chain of Cytochrome P450 2D6 (P10635 whole entry): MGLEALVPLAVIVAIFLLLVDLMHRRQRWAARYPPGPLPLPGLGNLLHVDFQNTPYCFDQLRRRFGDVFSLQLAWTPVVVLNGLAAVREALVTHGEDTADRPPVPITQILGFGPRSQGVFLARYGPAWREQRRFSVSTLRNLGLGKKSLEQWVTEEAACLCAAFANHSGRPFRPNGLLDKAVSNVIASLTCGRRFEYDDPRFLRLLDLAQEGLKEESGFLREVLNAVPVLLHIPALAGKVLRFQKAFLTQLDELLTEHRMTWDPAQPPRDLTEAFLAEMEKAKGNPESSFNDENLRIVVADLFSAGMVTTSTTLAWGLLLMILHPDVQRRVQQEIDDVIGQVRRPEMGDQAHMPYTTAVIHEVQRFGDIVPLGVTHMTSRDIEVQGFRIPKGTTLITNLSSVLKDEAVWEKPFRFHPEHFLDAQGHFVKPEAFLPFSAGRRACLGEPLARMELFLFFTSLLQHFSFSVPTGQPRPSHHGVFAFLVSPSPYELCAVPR
Chain of Histamine H1 receptor (P31389 whole entry): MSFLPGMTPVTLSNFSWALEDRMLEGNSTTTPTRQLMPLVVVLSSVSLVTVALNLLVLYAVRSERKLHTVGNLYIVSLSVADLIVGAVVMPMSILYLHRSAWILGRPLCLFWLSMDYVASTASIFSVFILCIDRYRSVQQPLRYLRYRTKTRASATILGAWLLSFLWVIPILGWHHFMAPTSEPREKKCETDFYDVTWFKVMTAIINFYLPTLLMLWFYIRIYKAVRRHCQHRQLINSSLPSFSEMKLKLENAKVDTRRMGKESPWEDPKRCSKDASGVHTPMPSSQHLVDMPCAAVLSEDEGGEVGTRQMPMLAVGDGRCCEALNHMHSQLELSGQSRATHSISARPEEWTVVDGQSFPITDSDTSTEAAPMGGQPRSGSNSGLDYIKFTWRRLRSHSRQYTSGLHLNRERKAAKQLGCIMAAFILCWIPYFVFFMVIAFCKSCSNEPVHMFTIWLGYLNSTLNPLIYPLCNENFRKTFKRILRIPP

For `O=C(CCOc1ccccc1)N1CCC(Cc2cnc[nH]2)CC1`, the Kb on Histamine H3 receptor [1] is 15.8 nM.

For `CCCCCCC(=O)N1CCC(Cc2c[nH]cn2)CC1`, the Ki (as a rule, a measure of affinity in units of concentration, obtained from inhibition or displacement) at Histamine H3 receptor [2] worked out at 18 nM. The Kb on Histamine H3 receptor [1] is 39.8 nM.

`O=C(CCCN1CCC(Cc2cnc[nH]2)CC1)Nc1ccc(Cl)cc1` yielded a Ki at Histamine H3 receptor [2] of 17 nM. For the same molecule, at Histamine H3 receptor [1], the Kb was 5.01 nM.

`O=C(CCCc1ccccc1)N1CCC(Cc2cnc[nH]2)CC1` came in with a Ki at Histamine H3 receptor [2] of 9 nM. Further, the Kb at Histamine H3 receptor [1] is 15.8 nM.

At Histamine H3 receptor [2], `c1ccc(CCCCN2CCC(Cc3cnc[nH]3)CC2)cc1` registered a Ki of 5 nM. In addition, the Kb on Histamine H3 receptor [1] is 6.31 nM.

With `O=C(CCN1CCC(Cc2cnc[nH]2)CC1)NC1CCCCC1`, the affinity on Histamine H3 receptor [2] corresponds to a Ki of 3 nM. In addition, the Kb on Histamine H3 receptor [1] is 6.31 nM.

`O=C(CCCCN1CCC(Cc2cnc[nH]2)CC1)Nc1ccc(Cl)cc1` displayed a Ki at Histamine H3 receptor [2] of 40 nM.

`O/N=C/c1ccc(OCCCN2CCC(Cc3c[nH]cn3)CC2)cc1` showed a Ki on Histamine H3 receptor [2] of 44 nM.

`Clc1cccc(NCCCN2CCC(Cc3cnc[nH]3)CC2)c1` returned an inhibitory constant (Ki) at Histamine H3 receptor [2] of 2 nM. In addition, the Kb at Histamine H3 receptor [1] is 3.98 nM.

On Histamine H3 receptor [2], `COC(=O)c1ccc(NC(=O)CCN2CCC(Cc3cnc[nH]3)CC2)cc1` gave a Ki of 3 nM. Further, the Kb on Histamine H3 receptor [1] was 1.58 nM.

`CCCCCCCN1CCC(Cc2cnc[nH]2)CC1`: the Kb on Histamine H3 receptor [1] was 2.51 nM.

With `Clc1cccc(OCCCN2CCC(Cc3cnc[nH]3)CC2)c1`, the Ki at Histamine H3 receptor [2] is 2 nM. Further, the Kb on Histamine H3 receptor [1] is 12.6 nM.

In the case of `O=S(=O)(CCCN1CCC(Cc2c[nH]cn2)CC1)c1ccccc1`, the Ki at Histamine H3 receptor [2] is 25 nM. Further, the Kb at Histamine H3 receptor [1] was 79.4 nM.

`N#Cc1ccc(OCCCN2CCC(Cc3c[nH]cn3)CC2)cc1` came in with a Ki on Histamine H3 receptor [2] of 20 nM.

With `CN(C(=O)CCN1CCC(Cc2cnc[nH]2)CC1)c1ccc(Cl)cc1`, at Histamine H3 receptor [2], the affinity corresponds to a Ki of 60 nM.

`O=S(=O)(CCN1CCC(Cc2c[nH]cn2)CC1)Nc1ccc(Cl)cc1`: the inhibitory constant (Ki) at Histamine H3 receptor [2] was found to be 170 nM.

Molecule `Clc1ccc(CCCCN2CCC(Cc3cnc[nH]3)CC2)cc1` yielded a Ki at Histamine H3 receptor [2] of 6 nM. Further, the Kb at Histamine H3 receptor [1] is 1.58 nM.

In the case of `COC(=O)c1ccc(OCCC(=O)N2CCC(Cc3c[nH]cn3)CC2)cc1`, the affinity at Histamine H3 receptor [2], expressed as Ki, was 625 nM.

On to `O=C(CCN1CCC(Cc2c[nH]cn2)CC1)Nc1ccc(Cl)cc1`, for which, on Histamine H3 receptor [1], the Kb is 0.0794 nM. Also, at Cytochrome P450 2D6, the IC50 (as a rule, the midpoint of a concentration-inhibition curve) worked out at 40 nM. Also, the Ki at Histamine H3 receptor [3] was 1.7 nM; at Histamine H1 receptor it was 290 nM.

At Histamine H3 receptor [2], `O=C(NCCN1CCC(Cc2cnc[nH]2)CC1)c1ccc(Cl)cc1` returned a Ki of 9 nM. For the same molecule, the Kb at Histamine H3 receptor [1] was 12.6 nM.

With `O=C(CCN1CCC(Cc2c[nH]cn2)CC1)Nc1cccc(Cl)c1`, at Histamine H3 receptor [1], the Kb was 0.158 nM. For the same molecule, the affinity on Histamine H3 receptor [3], expressed as Ki, was 0.4 nM.

For the molecule `c1nc(CC2CCNCC2)c[nH]1` [IMMEPIP], the affinity on Histamine H3 receptor [2] corresponds to a Ki of 0.4 nM.

Take `O=C(CCN1CCC(Cc2c[nH]cn2)CC1)Nc1cccc(F)c1`: the Ki is 0.2 nM at Histamine H3 receptor [2] and 1.9 nM on Histamine H3 receptor [3]. Besides, on Histamine H3 receptor [1], the Kb is 0.126 nM. For the same molecule, on Cytochrome P450 2D6, it took 100 nM to reach half-maximal inhibition (IC50).

For the molecule `c1ccc(OCCCN2CCC(Cc3c[nH]cn3)CC2)cc1`, the Kb on Histamine H3 receptor [1] was 5.01 nM.

With `O=C(NCCCN1CCC(Cc2cnc[nH]2)CC1)c1ccc(Cl)cc1`, the inhibition constant Ki on Histamine H3 receptor [2] was 13 nM.

`O=C(CCC(=O)N1CCC(Cc2c[nH]cn2)CC1)Nc1ccc(Cl)cc1` showed a Ki at Histamine H3 receptor [2] of 970 nM.

Molecule `O=C(CCN1CCC(Cc2c[nH]cn2)CC1)Nc1ccccc1` had a Ki on Histamine H3 receptor [2] of 2 nM. Besides, the Kb on Histamine H3 receptor [1] is 1.26 nM.

`O=C(CCN1CCC(Cc2c[nH]cn2)CC1)NCc1ccc(Cl)cc1` showed a Ki on Histamine H3 receptor [2] of 21 nM.

At Histamine H3 receptor [2], `COc1ccc(NC(=O)CCN2CCC(Cc3cnc[nH]3)CC2)cc1` came in with a Ki of 3 nM. The Kb at Histamine H3 receptor [1] is 1.58 nM.
